# Biological target: DYRK1A (Homo sapiens (Human), UniProt Q13627)
# Test: DYRK1A activity Tau assay: pSer396 Tau in SH-SY5Y cells by ELISA / western blot
# Assay type: cell-based
# Details: overnight (16-18 h) exposure
# Source text: In another example, in vitro assays for DYRK1A biological activity may be used, e.g. regulation of microtubule-associated protein tau (MAPT/Tau) phosphorylation in neuronal cell line such as the human SH-SY5Y neuroblastoma cell line. Assays for DYRK1a-regulated level of phosphorylation can include monitoring levels of basal pSer396 Tau, which can be measured, for example, by serial dilutions of a candidate inhibitor composition using a ten micromolar top concentration and detected by ELISA or Western Blotting. An exemplary assay for DYRK-1a-regulated phosphorylation uses the SH-SY5Y cells cultured in a 96 well plate format for a period of time sufficient to stabilize microtubules and Tau phosphorylation, usually at least 2 days, then treated with a 1/3 serial dilution of compounds overnight and lysed. The cell lysate is resolved by SDS PAGE, then transferred to nitrocellulose and probed with an antibody specific for pSer396 Tau.
# In a further example, the activity of a candidate compound can be measured by ELISA by adding the lysate mentioned above onto total Tau-coated plates and detected with a specific pSer396 antibody.
row,EC50,SMILES
1,11 nM,"O=C(NC1CC1)c1n[nH]c2ccc(-c3cncc(CN4CCCC4)c3)cc12 [Compound 148, N-Cyclopropyl-5-(5-(pyrrolidin-1-ylmethyl)pyridin-3-yl)-1H-indazole-3-carboxamide]"
2,9 nM,"O=C(NC1CCCC1)c1n[nH]c2ccc(-c3cccnc3)cc12 [Compound 179, N-Cyclopentyl-5-(pyridin-3-yl)-1H-indazole-3-carboxamide]"
3,47 nM,"O=C(NC1CCCC1)c1n[nH]c2ccc(-c3cncc(N4CCCC4)c3)cc12 [Compound 181, N-Cyclopentyl-5-(5-(pyrrolidin-1-yl)pyridin-3-yl)-1H-indazole-3-carboxamide]"
4,36 nM,"O=C(NC1CCCCC1)c1n[nH]c2ccc(-c3cc(CN4CCCCC4)cc(F)c3F)cc12 [Compound 217, N-Cyclohexyl-5-(2,3-difluoro-5-(piperidin-1-ylmethyl)phenyl)-1H-indazole-3-carboxamide]"
5,22 nM,"CC(C)(C)N1CCC(NC(=O)c2n[nH]c3ccc(-c4cncc(N5CCCC5)c4)cc23)CC1 [Compound 293, N-(1-(tert-Butyl)piperidin-4-yl)-5-(5-(pyrrolidin-1-yl)pyridin-3-yl)-1H-indazole-3-carboxamide]"
6,5 nM,"C#CCN1CCC(NC(=O)c2n[nH]c3ccc(-c4cccnc4)cc23)CC1 [Compound 349, N-(1-(Prop-2-yn-1-yl)piperidin-4-yl)-5-(pyridin-3-yl)-1H-indazole-3-carboxamide]"
7,81 nM,"O=C(Nc1ccnc(C(F)(F)F)c1)c1n[nH]c2ccc(-c3cncc(N4CCCC4)c3)cc12 [Compound 820, 5-(5-(Pyrrolidin-1-yl)pyridin-3-yl)-N-(2-(trifluoromethyl)pyridin-4-yl)-1H-indazole-3-carboxamide]"
8,6 nM,"O=C(NC1CCN(CCF)CC1)c1n[nH]c2ccc(-c3cccnc3)cc12 [Compound 1180, N-(1-(2-Fluoroethyl)piperidin-4-yl)-5-(pyridin-3-yl)-1H-indazole-3-carboxamide]"
9,6 nM,"O=C(NC1CCN(CC(F)F)CC1)c1n[nH]c2ccc(-c3cccnc3)cc12 [Compound 1181, N-(1-(2,2-Difluoroethyl)piperidin-4-yl)-5-(pyridin-3-yl)-1H-indazole-3-carboxamide]"

# Second part, the compound before the results:
row,SMILES,EC50
1,"CC#CCN1CCC(NC(=O)c2n[nH]c3ccc(-c4cccnc4)cc23)CC1 [Compound 369, N-(1-(But-2-yn-1-yl)piperidin-4-yl)-5-(pyridin-3-yl)-1H-indazole-3-carboxamide]",7 nM
2,"O=C(Nc1cnc(C(F)(F)F)nc1)c1n[nH]c2ccc(-c3cncc(CN4CCCCC4)c3)cc12 [Compound 1116, 5-(5-(Piperidin-1-ylmethyl)pyridin-3-yl)-N-(2-(trifluoromethyl)pyrimidin-5-yl)-1H-indazole-3-carboxamide]",1 nM
3,"O=C(NC1CCN(Cc2ccccc2)CC1)c1n[nH]c2ccc(-c3cccnc3)cc12 [Compound 1152, N-(1-Benzylpiperidin-4-yl)-5-(pyridin-3-yl)-1H-indazole-3-carboxamide]",3 nM
4,"O=C(NC1CCN(CC(F)F)CC1)c1n[nH]c2ccc(-c3cccc(F)c3F)cc12 [Compound 1161, N-(1-(2,2-Difluoroethyl)piperidin-4-yl)-5-(2,3-difluorophenyl)-1H-indazole-3-carboxamide]",134 nM
5,"CN(C)CCNC(=O)c1n[nH]c2ccc(-c3cccc(F)c3F)cc12 [Compound 1165, 5-(2,3-Difluorophenyl)-N-(2-(dimethylamino)ethyl)-1H-indazole-3-carboxamide]",77 nM
6,"O=C(NC1CCN(CC(F)(F)F)CC1)c1n[nH]c2ccc(-c3cccnc3)cc12 [Compound 1182, 5-(Pyridin-3-yl)-N-(1-(2,2,2-trifluoroethyl)piperidin-4-yl)-1H-indazole-3-carboxamide]",8 nM
7,"O=C(NCCN1CCCC1)c1n[nH]c2ccc(-c3cccnc3)cc12 [Compound 1195, 5-(Pyridin-3-yl)-N-(2-(pyrrolidin-1-yl)ethyl)-1H-indazole-3-carboxamide]",4 nM

# — patent publication US10669240B2, “5-substituted indazole-3-carboxamides and preparation and use thereof” (Samumed, LLC, priority 2014, dated 2020)
